Patent US20240425508A1, “COMPOUNDS USEFUL IN PREVENTION AND/OR TREATMENT OF SENESCENT CELL-RELATED PATHOLOGIES AND DISEASES” (ISTITUTI CLINICI SCIENTIFICI MAUGERI SPA SB, priority 2022, published 2024)
Like-named read-outs stand apart in the source and are kept apart here.

How the values were obtained:
[1] = system: primary human fetal lung cells IMR90; format: cell-based
Source text: Cell culture and replicative senescence. Fetal pulmonary fibroblasts, IMR90, were provided by the European Collection of Authenticated Cell Culture (ECACC) and grown in a complete medium consisting of Minimum Essential Medium (MEM), 10% Fetal Bovine Serum (FBS), 1% penicillin-streptomycin (antibiotic), 1% L-glutamine. Cells with passages from P15 to P21 were used; cells were considered incrementally senescent from passage P19 to passage P21. […] The cells were fixed in paraformaldehyde 2% and incubated with the substrate, X-gal, in a solution at pH 6, at 37° C., overnight (16 h).
The images were acquired using an optical microscope (Leica) with 5× magnification. The images were analyzed using the ImageJ software, quantifying the colorimetric signal emitted by each cell. The mean signal intensity was then normalized for the total number of cells. Survival curves of the compounds. […] The cells were then counted manually, in triplicate, using disposable burker chambers.
13 compounds including K5, with different structures, were assayed using an in vitro senescence model, that was developed utilizing serial passages of primary human fetal lung cells IMR90. […] Senescence was detected using the “Senescence β-Galactosidase Staining Kit” (#9860S, Cell Signaling Technology, Inc., MA, USA). […]

[2] = Crossing of the blood-brain barrier after administration; settings: in vivo
recombinant HSP90α = biological target: T1, recombinant HSP90α (Homo sapiens, UniProt P07900); test: HSP90 inhibition activity assay, FITC-geldanamycin competitive binding fluorescence polarization; settings: 1 pM-10 μM, 2 h, FITC-labeled geldanamycin
T1 construct: purchased BPS Bioscience 50293
Method: HSP90 inhibition activity assay. […] Briefly, the compounds were diluted at different concentrations between 1 pM to 10 μM and incubated for 2 h with the enzyme and substrate at RT while stirring.

[3] = rats; cited from earlier work
IMR90 cells = test: DAPI staining assay of surviving cells in replicative senescence model; settings: DAPI signal, 0.5 μM, 48 h, FIG. 2B
Method: Following treatment, the cells were seeded in 96mw. The adherent cells were then fixed with 70% ethanol, incubated for 30 min with a 3 μM DAPI solution; the fluorimetric signal was measured using a multiplate reader (Victor Nivo-Perkin Elmer) set to 350/460 nm (Ligasová A, Koberna K. Quantification of fixed adherent cells using a strong enhancer of the fluorescence of DNA dyes. Sci Rep. 2019 Jun. 18; 9(1):8701. doi: 10.1038/s41598-019-45217-9. PMID: 31213648; PMCID: PMC6581942.).
To confirm data obtained by traditional cell counting by a single operator, a quantification method based on […] was also implemented, exploiting the ability of the DAPI to mark cell nuclei. The cells that survived the action of senolytics were fixed and incubated with the fluorescent indicator. The specific signal was measured using the microplate multimode reader, Victor NIVO (PerkinElmer Tech. GmbH, Germany).

[4] = dogs; cited from earlier work

For Cc1ccccc1-n1c(=O)n(Cc2ccccc2)c(=O)c2[nH]cnc21 [Compound Ia, 1-benzyl-3-(2-methylphenyl)-2,3,6,7-tetrahydro-1H-purine-2,6-dione], the “reduction of the senescent population” value ([1]; IMR90 P19-P21, first 48 hours of exposure, FIG. 2A (1 μM)) was “about 50%”, the “senolytic action on cells at passages between P19 and P21” value ([1]; IMR90 P19-P21 vs P15-P17, 1 μM, 48 h) was “act selectively and significantly” and the “crossing of the blood-brain barrier (BBB)” value [2] was “enables the crossing of the blood-brain barrier”. The IC50 (recombinant HSP90α) was 731 nM.

For CO[C@H]1/C=C\C=C(/C)C(=O)NC2=CC(=O)C(NCCN(C)C)=C(C[C@@H](C)C[C@H](OC)[C@H](O)[C@@H](C)/C=C(\C)[C@@H]1OC(N)=O)C2=O [Compound 17-DMAG, 17-dimethylaminoethylamino-17-demethoxygeldanamycin], the “maximum tolerated dose (MTD)” value [3] is listed as 12 mg/m^2, the “cytotoxic effects in the cellular model IMR90” value (IMR90 cells) is listed as “cytotoxic effects already at low concentrations and also in early passages” and the “maximum tolerated dose (MTD)” value [4] is listed as 8 mg/m^2.

With CC(C)c1cc(-c2n[nH]c(=O)n2-c2ccc3c(ccn3C)c2)c(O)cc1O [Ganetespib] the “cytotoxic effects in the cellular model IMR90” value (IMR90 cells) was “cytotoxic effects already at low concentrations and also in early passages”.
